# Measured values published in patent US20240293514A1, “PHARMACEUTICAL COMPOSITIONS COMPRISING GLP-1R AGONISTS” (4MOVING BIOTECH, priority 2021, published 2024).
# Marks after values point to notes of the source that are not given here.
# Experiments:
# Assay type in all cases: in vivo, SD rats
# [1] = tested on: MIA-induced model of osteoarthritis and inflammatory pain in rats; assay: Electronic von Frey test, various GLP-1R agonists, MIA-induced model (Example 7, cycle 1)
# Protocol: (§1) Seven groups comprising 8 SD rats per group were allocated for this study performed in 2 cycles (4 SD rats/cycle). Chemically-induced OA disease was performed on six out of seven groups by injecting intra-articularly (IA) in the right knee joint 3 mg of MIA in 30 μL on day 1. The control group (sham/vehicle control) received 30 μL of saline IA in the right knee joint. […] All groups 31M-37M received 1 IA injection of either saline (group 31M) or MIA (groups 32M to 37M) on day 1 and the treatment injection on day 3. During the study, body weight measurements (twice a week) and von Frey tests using electronic von Frey apparatus (on day 2, 7, for C1) and von Frey filaments (on day 10, 18, 24 and 30 for Cl, and on day 2, 7, 10, 18, 24 and 30 for C2) were performed. Group allocation was performed on day 2, based on von Frey results. Knee harvesting was performed for optional analyses at study termination at day 32.
# (§2) A solution comprising dulaglutide is prepared from the product Trulicity®. Trulicity® is a commercial dulaglutide drug. Trulicity® is supplied as a “ready to use” solution at 4.5 mg/0.50 mL. It will be diluted in the appropriate volume of vehicle (NaCl 0.9%) for injection into knee joint of 270 μg in 30 μL per rat for group 33M.
# (§3) Bydureon® is supplied as a “ready to use” solution at 2 mg/0.65 mL. It will be diluted in the appropriate volume of vehicle (NaCl 0.9%) for injection into knee joint of 92.31 μg in 30 μL per rat for group 34M.
# (§4) Bydureon Bcise® is supplied as a “ready to use” solution at 2.35 mg/mL. It will be diluted in the appropriate volume of vehicle (NaCl 0.9%) for injection into knee joint of 70.6 μg in 30 μL per rat for group 35M.
# (§5) A solution comprising lixisenatide is prepared from the product Adlyxin®. Adlyxin® is a commercial lixisenatide drug. Adlyxin® is supplied as a “ready to use” solution at 100 μg/mL. It will be diluted in the appropriate volume of vehicle (NaCl 0.9%) for injection into knee joint of 3 μg in 30 μL per rat for group 36M.
# (§6) It will be diluted in the appropriate volume of vehicle (NaCl 0.9%) for injection into knee joint of 180 μg in 30 μL per rat for group 37M.
# (§7) 56 male SD rats aged 9 weeks were anesthetized via a chamber induction technique using inhalation anesthesia (Isoflurane at 5%). During the procedure, the animal was maintained under Isoflurane at a level between 1.5 and 3% with an air flow rate of 1-2 liters/minute. After induction of anesthesia, the right hind limb skin surface was clipped free of hair using electric animal clippers. After shaving, the area surrounding the knee joint was wiped with alcohol. A volume of 30 μL containing 3 mg MIA was injected intra-articularly (IA) in the knee joint through the patellar tendon. A 29-gauge, 0.5-inch needle that fitted with cannulation tubing was used such that only 3 to 4 mm of the needle was allowed to puncture the joint. After injection, the knee was massaged to ensure even distribution of the solution. Animals were injected once on day 1 (groups 32M, 33M, 34M, 35M, 36M, 37M). For group 31M (sham control), 30 μL of injectable saline was injected into knee joint.
# (§8) Von Frey test in the rats following MIA injection was conducted according to 4P-Pharma's proceedings “Mechanical Neuropathic Pain Evaluation (electronic Von Frey)” and to 4P-Pharma's proceedings “Mechanical Neuropathic Pain Evaluation (Von Frey)”. Rats were placed individually in the designated transparent Plexiglas chambers and allowed to acclimate for 10-15 min. Withdrawal response to mechanical stimulation was determined using electronic von Frey apparatus (BIO-EVF5, Bioseb) with a 0.5 mm diameter tip placed on the stimulator handle applied from underneath the cage through openings (12×12 mm) in the plastic mesh floor or with von Frey filaments (Bio-VF-M, Bioseb). The withdrawal response in gram-force for each rat was calculated from three trials for von Frey apparatus and once with von Frey filaments.
# [2] = tested on: MIA-induced model of osteoarthritis and inflammatory pain in rats; assay: Von Frey filaments test, various GLP-1R agonists, MIA-induced model (Example 7)
# Protocol: as §1, §2, §3, §4, §5, §6, §7, §8
# [3] = tested on: MIA-induced model of osteoarthritis and inflammatory pain in rats; assay: Electronic and equivalent von Frey scores normalized to vehicle group (Example 7)
# Protocol: Allodynia in rats following OA induction on day 1 was evaluated on day 2 and on day 7 using both Electronic (for cycle 1) and von Frey filaments (for cycle 2). Both tests are reliable and valid for the assessment of the mechanical sensitivity in the ipsilateral hind paw of rats. Additionally, von Frey filament score can be transposed approximately to an equivalent electronic von Frey score (theorical pressure in grams/mm^2). To assure the obtained results, we performed a test using both von Frey filaments and Electronic von Frey apparatus on three rats from three different groups (31M, 32M and 37M).
# Equivalent electronic von Frey score was calculated using the “Aesthesio Precision Tactile sensory data chart” from the results obtained with von Frey filaments. Thus, to have a more representative vision of the results obtained in previous experiments using the electronic von Frey apparatus, we combine both the electronic von Frey scores obtained from Cycle 1 (Day 2 and 7) and the equivalent score calculated from the results obtained with the von Frey filaments for Cycle 1 (from day 10) and Cycle 2.
# [4] = 270 μg IA once on day 3, D2 (baseline before treatment)
# [5] = 180 μg IA once on day 3, D2 (baseline before treatment)
# [6] = 3 μg IA once on day 3, D2 (baseline before treatment)
substance,measurement,setting,value
dulaglutide,"right paw withdrawal threshold, Electronic von Frey (mean)",[1]; [4],30.03 grams
same,"right paw withdrawal threshold, Electronic von Frey (mean)","[1]; 270 μg IA once on day 3, D7",50.98 grams
same,"right paw withdrawal threshold, von Frey filaments (mean)",[2]; [4],2.28^$$$ grams
same,"right paw withdrawal threshold, von Frey filaments (mean)","[2]; 270 μg IA once on day 3, D7",2.85 grams
same,"right paw withdrawal threshold, von Frey filaments (mean)","[2]; 270 μg IA once on day 3, D10",4.75*** grams
same,"right paw withdrawal threshold, von Frey filaments (mean)","[2]; 270 μg IA once on day 3, D18",6.50*** grams
same,"right paw withdrawal threshold, von Frey filaments (mean)","[2]; 270 μg IA once on day 3, D24",7.00*** grams
same,"right paw withdrawal threshold, von Frey filaments (mean)","[2]; 270 μg IA once on day 3, D30",8.25*** grams
liraglutide,"right paw withdrawal threshold, Electronic von Frey (mean)",[1]; [5],32.88 grams
same,"right paw withdrawal threshold, Electronic von Frey (mean)","[1]; 180 μg IA once on day 3, D7",63.60 grams
same,von Frey score normalized to vehicle group (31M),"[3]; 180 μg IA (group 37M), at day 10, level maintained for 20 days",70%
same,"right paw withdrawal threshold, von Frey filaments (mean)",[2]; [5],1.60^$$$ grams
same,"right paw withdrawal threshold, von Frey filaments (mean)","[2]; 180 μg IA once on day 3, D7",8.00*** grams
same,"right paw withdrawal threshold, von Frey filaments (mean)","[2]; 180 μg IA once on day 3, D10",9.63*** grams
same,"right paw withdrawal threshold, von Frey filaments (mean)","[2]; 180 μg IA once on day 3, D18",11.63*** grams
same,"right paw withdrawal threshold, von Frey filaments (mean)","[2]; 180 μg IA once on day 3, D24",10.25*** grams
same,"right paw withdrawal threshold, von Frey filaments (mean)","[2]; 180 μg IA once on day 3, D30",9.00*** grams
lixisenatide,"right paw withdrawal threshold, Electronic von Frey (mean)",[1]; [6],33.55 grams
same,"right paw withdrawal threshold, Electronic von Frey (mean)","[1]; 3 μg IA once on day 3, D7",55.15 grams
same,von Frey score normalized to vehicle group (31M),"[3]; 3 μg IA (group 36M), raised to and kept",60%
same,"right paw withdrawal threshold, von Frey filaments (mean)",[2]; [6],1.30^$$$ grams
same,"right paw withdrawal threshold, von Frey filaments (mean)","[2]; 3 μg IA once on day 3, D7",5.00** grams
same,"right paw withdrawal threshold, von Frey filaments (mean)","[2]; 3 μg IA once on day 3, D10",7.63*** grams
same,"right paw withdrawal threshold, von Frey filaments (mean)","[2]; 3 μg IA once on day 3, D18",7.75*** grams
same,"right paw withdrawal threshold, von Frey filaments (mean)","[2]; 3 μg IA once on day 3, D24",7.25*** grams
same,"right paw withdrawal threshold, von Frey filaments (mean)","[2]; 3 μg IA once on day 3, D30",8.88*** grams
